The record followed here is patent US20040023884A1, “Biologically active peptides from functional domains of bactericidal/permeability-increasing protein and uses thereof” (priority 1993, published 2004).

Entries after “also recorded” stand apart in the source; their conditions may differ. Ends that are not written are not given here.

One test deals with Staphylococcus aureus. As to the kind of experiment: Radial diffusion bactericidal assay, Staphylococcus aureus. The format is cell-based. Conditions: for pmol added to well to achieve a 30 mm^2 bactericidal zone, S. aureus: radial diffusion, PROBIT analysis; for bactericidal activity (in words): FIG. 10e.
For test [1], the system named is E. coli 0111:B4 (smooth) bacteria. Kind of test: Radial diffusion bactericidal assay, E. coli 0111:B4. The format is cell-based. Particulars: radial diffusion; for bactericidal activity (in words): E. coli 0111:B4; for pmol added to well to achieve a 30 mm^2 bactericidal zone, E. coli O111:B4: PROBIT analysis, E. coli O111:B4 (smooth).
Test [2] is described as follows: Lipid A binding competition with [125I]-rLBP. Conditions: for IC50: read-out: IC50 (inhibition of Lipid A binding of radiolabeled rLBP). The procedure:
A second binding assay was developed, wherein radiolabeled recombinant LPS binding protein ([^125I]-rLBP) was used instead of radiolabeled rBPI23 in competition experiments with BPI functional domain peptides BPI.2, BPI.3, BPI.4, BPI.5, BPI.7, BPI.13, BPI.14, BPI.29, BPI.30 and BPI.48, rBPI, rBPI21Δcys, and rLBP25 were included in these assays as controls. In these experiments, Lipid A was adsorbed to the wells at a concentration of 0.7 μg/mL in methanol. Incubation of radiolabeled rLBP (a total of 650,000 cpm and a specific activity of 3.45 μCi/μg) was performed for 2.5 hr at 37° C. in the presence of BPI peptides in a series of increasing concentrations. IC50 values (i.e., the concentration at which Lipid A binding of radiolabeled rLBP25 is inhibited to one half the value achieved in the absence of the peptide) are shown in accompanying Table XI.

A short description of test [3]: 3H-heparin binding assay (affinity and capacity). Particulars: for Heparin Capacity: heparin bound at saturation; for Kd: read-out: Heparin Affinity. The method, boiled down:
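Peptide fragments were bound to PVDF-membrane wells and incubated with 3H-heparin in blocking buffer for 1 h at 4 °C. After washing, bound radioactivity was quantified by liquid scintillation counting, with BSA background subtracted; rBPI23 served as positive control.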

In another test the test system is RAW 264.7 cells. As to the kind of experiment: LPS neutralization cellular proliferation assay, RAW 264.7 cells. The format is cell-based, mouse. The method, boiled down:
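Mouse RAW 264.7 cells were primed 24 h with 50U/mL mouse γ-interferon, then exposed about 15 h to E. coli O113 LPS in serum-free RPMI with or without BPI peptides at 25 ng/mL–50 μg/mL. Proliferation was quantified by [^3H]-thymidine uptake, 1 μCi/well, added at 5 h.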

Test [4] has as its system rough mutant E. coli J5 bacteria. Kind of test: Radial diffusion bactericidal assay, E. coli J5. The format is cell-based. Conditions: for pmol added to well to achieve a 30 mm^2 bactericidal zone, E. coli J5 / bactericidal activity (in words): radial diffusion; for pmol added to well to achieve a 30 mm^2 bactericidal zone, E. coli J5: PROBIT analysis, E. coli J5 (rough); for bactericidal activity (in words): E. coli J5. The procedure, abridged:
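Log-phase bacteria, washed in 10 mM sodium phosphate pH 7.4, were seeded at 4×10^6 CFU/mL in underlayer agarose. BPI fragments (5 or 10 μL) went into 3 mm wells for 3 h at 37° C., then overlayer agarose was added. After overnight 37° C. incubation, clearing zones were measured by micrometer.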

IKISGKWKAQKRFLK [BPI.2]: the “pmol added to well to achieve a 30 mm^2 bactericidal zone, S. aureus” value (from here on “pmol added to well … S. aureus”) in the test on Staphylococcus aureus is “b (no detectable activity up to 5 μg/well)”. For the same substance, in test [1], the “bactericidal activity (in words)” value is recorded as “exhibited bactericidal activity” and the “pmol added to well to achieve a 30 mm^2 bactericidal zone, E. coli O111:B4” value (from here on “pmol added to well … E. coli O111:B4”) is recorded as “b (no detectable activity up to 5 μg/well)”. In test [2], the “IC50 (inhibition of Lipid A binding of radiolabeled rLBP)” value was 2.36 µg/mL and the IC50 – broadly, the concentration that gives 50% inhibition – came out at 1300 nM. Also, in test [3], the “heparin binding activity (in words)” value was “little or no heparin binding activity”, the “heparin binding capacity (in words)” value is reported as “low heparin binding capacity”, the “Heparin Capacity” value was 203.6 ng and the Kd is 346 nM. Also, the “IC50 (peptide concentration at which RAW cell growth was inhibited by 50%)” value in the test on RAW 264.7 cells is “— (No proliferation decrease up to 50 μg/ml)”. For the same substance, the “pmol added to well to achieve a 30 mm^2 bactericidal zone, E. coli J5” value (“pmol added to well … E. coli J5” below) in test [4] is reported as 3,001.50 pmol.

On to “KSKVGWLIQLFHKK-NH2 (C-terminus assumed) [BPI.13]”, for which, in the test on Staphylococcus aureus, the “bactericidal activity (in words)” value is on record as “low levels of activity” and the “pmol added to well … S. aureus” value is reported as 5,341.27 pmol. Also, in test [1], the “pmol added to well … E. coli O111:B4” value is listed as 5,857.40 pmol. In addition, in test [2], the “IC50 (inhibition of Lipid A binding of radiolabeled rLBP)” value is 1.7 µg/mL and the IC50 was 1000 nM. Moreover, in test [3], the “Heparin Capacity” value came out at 369.1 ng and the Kd turned out to be 984 nM. For the same substance, in the test with RAW 264.7 cells, the “EC50 (peptide concentration at which the growth inhibitory effect of LPS was reversed by 50%)” value amounted to 1.9 ± 0.4 µg/mL. For the same substance, in test [4], the “concentration above which appreciable bactericidal activity was shown” value is reported as “greater than 30 μg/mL” and the “pmol added to well … E. coli J5” value was 440.80 pmol.

For the substance “KSKVGWLIQLFHKKKSKVGWLIQLFHKK-NH2 (C-terminus assumed) [BPI.29]”, in the test on Staphylococcus aureus, the “bactericidal activity (in words)” value is on record as “moderate levels of activity” and the “pmol added to well … S. aureus” value was 15,508.98 pmol. Also, in test [2], the “IC50 (inhibition of Lipid A binding of radiolabeled rLBP)” value is 0.44 µg/mL and the IC50 amounted to 130 nM. Besides, in test [3], the “heparin binding capacity (in words)” value is “extremely high heparin capacity”, the “Heparin Capacity” value was 463.7 ng and the Kd worked out at 427 nM. Further, in the test with RAW 264.7 cells, the “EC50 (peptide concentration at which the growth inhibitory effect of LPS was reversed by 50%)” value is 0.1 ± 0.02 µg/mL and the “IC50 (peptide concentration at which RAW cell growth was inhibited by 50%)” value was determined as 13.6 ± 0.4 µg/mL. In addition, in test [4], the “bactericidal activity (in words)” value is “greater bactericidal activity; also recorded: highly bactericidal” and the “pmol added to well … E. coli J5” value is listed as 441.60 pmol.

For KWKAAARFLKKWKAAARFLK [BPI.48], the “pmol added to well … S. aureus” value in the test on Staphylococcus aureus is listed as 4,089.14 pmol. For the same substance, in test [1], the “pmol added to well … E. coli O111:B4” value is on record as 253.54 pmol. Moreover, in test [2], the “IC50 (inhibition of Lipid A binding of radiolabeled rLBP)” value came to 0.48 µg/mL and the IC50 was found to be 200 nM. Also, in test [3], the “heparin binding capacity (in words)” value is listed as “extremely high heparin capacity”, the “Heparin Capacity” value was determined as 442.3 ng and the Kd came out at 1420 nM. Besides, in the test on RAW 264.7 cells, the “EC50 (peptide concentration at which the growth inhibitory effect of LPS was reversed by 50%)” value came out at 1.3 ± 0.9 µg/mL and the “IC50 (peptide concentration at which RAW cell growth was inhibited by 50%)” value was determined as 5.0 ± 0.1 µg/mL. Also, in test [4], the “bactericidal activity (in words)” value is given as “highly bactericidal” and the “pmol added to well … E. coli J5” value came out at 42.40 pmol.

“KWKAQKRFLKKSKVGWLIQLFHKK-NH2 (C-terminus assumed) [BPI.30]”: in the test on Staphylococcus aureus, the “bactericidal activity (in words)” value was “highest amount of bactericidal activity” and the “pmol added to well … S. aureus” value is given as 1,216.37 pmol. In test [1], the “pmol added to well … E. coli O111:B4” value worked out at 608.20 pmol. Besides, in test [2], the “IC50 (inhibition of Lipid A binding of radiolabeled rLBP)” value worked out at 0.75 µg/mL and the IC50 worked out at 250 nM. Further, in test [3], the “heparin binding capacity (in words)” value is recorded as “extremely high heparin capacity”, the “Heparin Capacity” value came to 499.4 ng and the Kd worked out at 592 nM. In the test on RAW 264.7 cells, the “EC50 (peptide concentration at which the growth inhibitory effect of LPS was reversed by 50%)” value is 1.2 ± 1.1 µg/mL and the “IC50 (peptide concentration at which RAW cell growth was inhibited by 50%)” value amounted to 10.5 ± 1.2 µg/mL. Moreover, in test [4], the “bactericidal activity (in words)” value is “highest bactericidal activity; also recorded: highly bactericidal” and the “pmol added to well … E. coli J5” value was 76.38 pmol.

As to “KWKAQKRFLKKWKAQKRFLK-NH2 (C-terminus assumed) [BPI.7]”, in the test with Staphylococcus aureus, the “bactericidal activity (in words)” value is recorded as “low levels of activity” and the “pmol added to well … S. aureus” value is reported as 3,769.60 pmol. In test [1], the “bactericidal activity (in words)” value is “exhibited bactericidal activity” and the “pmol added to well … E. coli O111:B4” value is on record as 2,072.10 pmol. Moreover, in test [2], the “IC50 (inhibition of Lipid A binding of radiolabeled rLBP)” value is 0.26 µg/mL and the 50% inhibitory concentration (IC50) worked out at 100 nM. In test [3], the “heparin binding capacity (in words)” value is “extremely high heparin binding capacity”, the “Heparin Capacity” value amounted to 405.6 ng and the Kd was 908 nM. For the same substance, in the test on RAW 264.7 cells, the “EC50 (peptide concentration at which the growth inhibitory effect of LPS was reversed by 50%)” value is over 50 µg/mL. In addition, in test [4], the “bactericidal activity (in words)” value was “exhibited bactericidal activity; also recorded: high levels of bactericidal activity; also recorded: highly bactericidal” and the “pmol added to well … E. coli J5” value is reported as 175.40 pmol.

For the substance NVGLKFSISNANIKISGKWKAQKRFLK [BPI.3], in test [1], the “bactericidal activity (in words)” value is given as “exhibited bactericidal activity” and the “pmol added to well … E. coli O111:B4” value is on record as “b (no detectable activity up to 5 μg/well)”. Further, in test [2], the “IC50 (inhibition of Lipid A binding of radiolabeled rLBP)” value worked out at 0.75 µg/mL and the IC50 is 250 nM. Further, in test [3], the “heparin binding activity (in words)” value is reported as “moderate heparin binding activity”, the “Heparin Capacity” value stood at 264.5 ng and the Kd stood at 781 nM. Moreover, in test [4], the “bactericidal activity (in words)” value was “exhibited bactericidal activity” and the “pmol added to well … E. coli J5” value was 695.78 pmol.
